The record followed here is US9296723B2, “NAMPT inhibitors” (AbbVie Inc., priority 2012, dated 2016).

A word on the IC50: it is the midpoint of a concentration-inhibition curve. A lower IC50 goes with greater potency in that assay.

The target in test [1] is T1, NAMPT (Homo sapiens, UniProt P43490). Kind of test: Time-Resolved Fluorescence Resonance Energy Transfer (TR-FRET) Binding Assay of NAMPT. As to conditions: 6.8 nM NAMPT, 200 nM probe, equilibrated 3 hours, no substrates. A digest of the protocol: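 Compound was mixed with enzyme, probe and antibody and equilibrated 3 h at room temperature. TR-FRET read at Ex 337 nm, Em 520/495 nm. Ratios were normalized to controls and fitted to a four-parameter logistic equation for IC50.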

The target of test [2] is T1, NAMPT. As to the kind of experiment: TR-FRET Binding Assay of NAMPT with PRPP. As to conditions: 2 nM NAMPT, 2 nM probe, 200 µM PRPP and 2.5 mM ATP, equilibrated 16 hours. On the procedure: Time-Resolved Fluorescence Resonance Energy Transfer (TR-FRET) Binding Assay of NAMPT with PRPP
Compound handling and data processing were identical to the assay in the absence of substrates (above). Final concentrations were 1× assay buffer, 2% DMSO, 2 nM NAMPT, 2 nM probe, 1 nM Tb-anti-His antibody (Invitrogen #PV5895), 200 µM PRPP and 2.5 mM ATP. Reactions were equilibrated for 16 hours prior to measurement to allow for potential enzymatic modification of test compounds.
For orientation: Time-resolved FRET reads energy transfer from a long-lived donor to a nearby acceptor.

The test system of another test is PC3 cells. Kind of test: NAMPT Cell Proliferation Assay (Cell Titer Glo). The test is classed as cell-based. As to conditions: Homo sapiens, PC-3, 120 h, incubated 5 days, cell viability. A digest of the protocol: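 PC3 cells (500/well, RPMI with 10% heat-inactivated FBS) were exposed to 10-fold compound dilutions from […] for 5 days at 37 °C, 5% CO2. Viability was read with Cell Titer Glo; IC50 from sigmoidal fit of percent inhibition.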
Background: ATP-based viability assays read luminescence as a measure of living cells.

T1 sequence (P43490 whole entry): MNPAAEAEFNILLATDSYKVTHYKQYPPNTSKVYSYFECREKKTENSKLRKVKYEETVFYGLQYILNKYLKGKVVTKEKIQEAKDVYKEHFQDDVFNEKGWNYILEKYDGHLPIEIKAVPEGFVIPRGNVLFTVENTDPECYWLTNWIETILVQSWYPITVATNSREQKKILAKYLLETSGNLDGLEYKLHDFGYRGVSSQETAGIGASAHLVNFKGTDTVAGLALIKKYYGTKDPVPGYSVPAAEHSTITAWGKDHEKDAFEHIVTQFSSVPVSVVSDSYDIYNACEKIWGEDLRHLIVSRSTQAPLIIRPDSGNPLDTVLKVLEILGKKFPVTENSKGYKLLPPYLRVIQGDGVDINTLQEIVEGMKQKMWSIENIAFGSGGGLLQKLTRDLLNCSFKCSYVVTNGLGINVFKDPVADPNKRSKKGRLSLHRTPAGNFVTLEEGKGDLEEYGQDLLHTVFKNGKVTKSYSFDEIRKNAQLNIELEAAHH

For the molecule `Cn1cccc1C(=O)N1CC(c2ccc(NC(=O)N3CC(c4cccnc4)C3)cc2)C1` [Example 225, N-(4-{1-[(1-methyl-1H-pyrrol-2-yl)carbonyl]azetidin-3-yl}phenyl)-3-(pyridin-3-yl)azetidine-1-carboxamide], the IC50 at NAMPT [1] stood at 14 nM; at NAMPT [2] it was 0.268 nM.
For the molecule `CC(C)CCN1CCC(c2ccc(NC(=O)N3CC(c4cccnc4)C3)cc2)CC1` [Example 236, N-{4-[1-(3-methylbutyl)piperidin-4-yl]phenyl}-3-(pyridin-3-yl)azetidine-1-carboxamide], the IC50 at NAMPT [1] worked out at 667 nM; at NAMPT [2], 0.21 nM.
Regarding `CC(=O)N1CC(c2ccc(NC(=O)N3CC(c4cccnc4)C3)cc2)C1` [Example 217, N-[4-(1-acetylazetidin-3-yl)phenyl]-3-(pyridin-3-yl)azetidine-1-carboxamide], the IC50 on NAMPT [1] is 278 nM; on NAMPT [2], 0.32 nM.
For the molecule `CC(C)(C)CC(=O)N1CC(c2ccc(NC(=O)N3CC(c4cccnc4)C3)cc2)C1` [Example 205, N-{4-[1-(3,3-dimethylbutanoyl)azetidin-3-yl]phenyl}-3-(pyridin-3-yl)azetidine-1-carboxamide], the IC50 turned out to be 42.6 nM on NAMPT [1] and 0.242 nM at NAMPT [2].
With `CCC(C)(C)CN1CC(c2ccc(NC(=O)N3CC(c4cccnc4)C3)cc2)C1` [Example 257, N-{4-[1-(2,2-dimethylbutyl)azetidin-3-yl]phenyl}-3-(pyridin-3-yl)azetidine-1-carboxamide], the IC50 at NAMPT [1] was 598 nM; on NAMPT [2], 0.223 nM.
The matching figures for `CCC(C)(C)CN1CCC(c2ccc(NC(=O)N3CC(c4cccnc4)C3)cc2)CC1` [Example 244, N-{4-[1-(2,2-dimethylbutyl)piperidin-4-yl]phenyl}-3-(pyridin-3-yl)azetidine-1-carboxamide]: 1170 nM and 0.516 nM.
In the case of `O=C(Nc1ccc(C2CN(C(=O)c3nccs3)C2)cc1)N1CC(c2cccnc2)C1` [Example 228, 3-(pyridin-3-yl)-N-{4-[1-(1,3-thiazol-2-ylcarbonyl)azetidin-3-yl]phenyl}azetidine-1-carboxamide], the IC50 amounted to 19.6 nM on NAMPT [1] and 0.31 nM on NAMPT [2].
In the case of `CCCC(C)CN1CCC(c2ccc(NC(=O)N3CC(c4cccnc4)C3)cc2)CC1` (stereo not shown) [Example 234, N-{4-[1-(2-methylpentyl)piperidin-4-yl]phenyl}-3-(pyridin-3-yl)azetidine-1-carboxamide], the IC50 at NAMPT [1] came to 760 nM; on NAMPT [2] it was 0.529 nM.
Turning to `Cc1ccc(C(=O)N2CC(c3ccc(NC(=O)N4CC(c5cccnc5)C4)cc3)C2)s1` [Example 223, N-(4-{1-[(5-methylthiophen-2-yl)carbonyl]azetidin-3-yl}phenyl)-3-(pyridin-3-yl)azetidine-1-carboxamide], the IC50 at NAMPT [1] worked out at 21.6 nM; on NAMPT [2] it was 0.391 nM.
Take `CC1(C(=O)N2CC(c3ccc(NC(=O)N4CC(c5cccnc5)C4)cc3)C2)CCCCC1` [Example 215, N-(4-{1-[(1-methylcyclohexyl)carbonyl]azetidin-3-yl}phenyl)-3-(pyridin-3-yl)azetidine-1-carboxamide]: the IC50 at NAMPT [1] was 27.4 nM; on NAMPT [2], 0.294 nM.
`CCOCCC(=O)N1CC(c2ccc(NC(=O)N3CC(c4cccnc4)C3)cc2)C1` [Example 203, N-{4-[1-(3-ethoxypropanoyl)azetidin-3-yl]phenyl}-3-(pyridin-3-yl)azetidine-1-carboxamide]: the values for the IC50 at NAMPT [1] and on NAMPT [2] were 250 nM and 0.427 nM, respectively.
As to `O=C(CN1CCOCC1)N1CC(c2ccc(NC(=O)N3CC(c4cccnc4)C3)cc2)C1` [Example 221, N-{4-[1-(morpholin-4-ylacetyl)azetidin-3-yl]phenyl}-3-(pyridin-3-yl)azetidine-1-carboxamide], the IC50 on NAMPT [1] amounted to 152 nM; on NAMPT [2], 0.319 nM.
Take `CC(C)C(C)C(=O)N1CC(c2ccc(NC(=O)N3CC(c4cccnc4)C3)cc2)C1` (stereo not shown) [Example 230, N-{4-[1-(2,3-dimethylbutanoyl)azetidin-3-yl]phenyl}-3-(pyridin-3-yl)azetidine-1-carboxamide]: the figures for the IC50 on NAMPT [1] and at NAMPT [2] were 38.8 nM and 0.305 nM, respectively.
As for `O=C(CCC(F)(F)F)N1CC(c2ccc(NC(=O)N3CC(c4cccnc4)C3)cc2)C1` [Example 213, 3-(pyridin-3-yl)-N-{4-[1-(4,4,4-trifluorobutanoyl)azetidin-3-yl]phenyl}azetidine-1-carboxamide], the IC50 stood at 87.3 nM at NAMPT [1] and 0.352 nM on NAMPT [2].
For `O=C(Nc1ccc(C2CCN(CCC3CC3)CC2)cc1)N1CC(c2cccnc2)C1` [Example 242, N-{4-[1-(2-cyclopropylethyl)piperidin-4-yl]phenyl}-3-(pyridin-3-yl)azetidine-1-carboxamide], the IC50 at NAMPT [1] worked out at 374 nM; at NAMPT [2], 0.225 nM.
Turning to `CC1CC1C(=O)N1CC(c2ccc(NC(=O)N3CC(c4cccnc4)C3)cc2)C1` (stereo not shown) [Example 199, N-(4-{1-[(2-methylcyclopropyl)carbonyl]azetidin-3-yl}phenyl)-3-(pyridin-3-yl)azetidine-1-carboxamide], the IC50 is 128 nM on NAMPT [1] and 0.356 nM on NAMPT [2].
Taken in the same sequence, the figures for `CC1(C(=O)N2CC(c3ccc(NC(=O)N4CC(c5cccnc5)C4)cc3)C2)CC1` [Example 227, N-(4-{1-[(1-methylcyclopropyl)carbonyl]azetidin-3-yl}phenyl)-3-(pyridin-3-yl)azetidine-1-carboxamide] were 69.2 nM and 0.294 nM.
Taken in the same sequence, the figures for `CCCCN1CCC(c2ccc(NC(=O)N3CC(c4cccnc4)C3)cc2)CC1` [Example 240, N-[4-(1-butylpiperidin-4-yl)phenyl]-3-(pyridin-3-yl)azetidine-1-carboxamide] were 603 nM and 0.466 nM.
`O=C(Nc1ccc(C2CN(C(=O)C3CCCCC3)C2)cc1)N1CC(c2cccnc2)C1` [Example 211, N-{4-[1-(cyclohexylcarbonyl)azetidin-3-yl]phenyl}-3-(pyridin-3-yl)azetidine-1-carboxamide]: the results for the IC50 on NAMPT [1] and on NAMPT [2] were 55.9 nM and 0.341 nM, respectively.
`O=C(Nc1ccc(C2CCN(CC3CCCCC3)CC2)cc1)N1CC(c2cccnc2)C1` [Example 232, N-{4-[1-(cyclohexylmethyl)piperidin-4-yl]phenyl}-3-(pyridin-3-yl)azetidine-1-carboxamide]: the figures for the 50% inhibitory concentration (IC50) at NAMPT [1] and on NAMPT [2] were 352 nM and 0.181 nM, respectively.
For the molecule `O=C(CC1CCCC1)N1CC(c2ccc(NC(=O)N3CC(c4cccnc4)C3)cc2)C1` [Example 229, N-{4-[1-(cyclopentylacetyl)azetidin-3-yl]phenyl}-3-(pyridin-3-yl)azetidine-1-carboxamide], the IC50 amounted to 40.3 nM at NAMPT [1] and 0.314 nM on NAMPT [2].
Turning to `O=C(Nc1ccc(C2CN(C(=O)c3ccsc3)C2)cc1)N1CC(c2cccnc2)C1` [Example 219, 3-(pyridin-3-yl)-N-{4-[1-(thiophen-3-ylcarbonyl)azetidin-3-yl]phenyl}azetidine-1-carboxamide], the IC50 stood at 19.4 nM on NAMPT [1] and 0.29 nM on NAMPT [2].
Turning to `CC(=O)N[C@@H](CC(C)C)C(=O)N1CC(c2ccc(NC(=O)N3CC(c4cccnc4)C3)cc2)C1` [Example 209, N-{4-[1-(N-acetyl-L-leucyl)azetidin-3-yl]phenyl}-3-(pyridin-3-yl)azetidine-1-carboxamide], the IC50 at NAMPT [1] was 24 nM; on NAMPT [2], 0.694 nM.
Take `CC(C)CCC(=O)N1CC(c2ccc(NC(=O)N3CC(c4cccnc4)C3)cc2)C1` [Example 201, N-{4-[1-(4-methylpentanoyl)azetidin-3-yl]phenyl}-3-(pyridin-3-yl)azetidine-1-carboxamide]: the IC50 at NAMPT [1] amounted to 43.2 nM; on NAMPT [2], 0.313 nM.
`O=C(Nc1ccc(C2CCN(C(=O)C3CCOC3)C2)cc1)N1CC(c2cccnc2)C1` (stereo not shown) [Example 68, 3-(pyridin-3-yl)-N-{4-[1-(tetrahydrofuran-3-ylcarbonyl)pyrrolidin-3-yl]phenyl}azetidine-1-carboxamide]: the figures for the IC50 at NAMPT [1] and with PC3 cells were 86.2 nM and 59.1 nM, respectively.
`CC(C)(C)CN1CC(c2ccc(NC(=O)N3CC(c4cccnc4)C3)cc2)C1` [Example 254, N-{4-[1-(2,2-dimethylpropyl)azetidin-3-yl]phenyl}-3-(pyridin-3-yl)azetidine-1-carboxamide]: the figures for the IC50 on NAMPT [1] and at NAMPT [2] were 246 nM and 0.174 nM, respectively.
On to `CCOCC(=O)N1CC(c2ccc(NC(=O)N3CC(c4cccnc4)C3)cc2)C1` [Example 207, N-{4-[1-(ethoxyacetyl)azetidin-3-yl]phenyl}-3-(pyridin-3-yl)azetidine-1-carboxamide], for which the IC50 on NAMPT [1] was 451 nM; on NAMPT [2] it was 0.37 nM.
Consider `Cn1cccc1C(=O)N1CCC(Oc2ccc(NC(=O)N3CC(c4cccnc4)C3)cc2)CC1` [Example 36, N-[4-({1-[(1-methyl-1H-pyrrol-2-yl)carbonyl]piperidin-4-yl}oxy)phenyl]-3-(pyridin-3-yl)azetidine-1-carboxamide], for which the IC50 is 27.3 nM at NAMPT [1] and 59.5 nM in the test with PC3 cells.
Take `CC(C)(O)C(=O)N1CC[C@@H](Oc2ccc(NC(=O)N3CC(c4cccnc4)C3)cc2)C1` [Example 82, N-(4-{[(3R)-1-(2-hydroxy-2-methylpropanoyl)pyrrolidin-3-yl]oxy}phenyl)-3-(pyridin-3-yl)azetidine-1-carboxamide]: the half-inhibitory concentration (IC50) came to 9.73 nM on NAMPT [1] and 7.24 nM with PC3 cells.
